# Tested on: 889142-216-R-J1-PDC complex spheroid viability
# Experiment: Anticancer human tumor 889142-216-R-J1-PDC patient-derived bladder carcinoma cell line growth inhibition [POLQ]
# Conditions: for IC50: curve of first compound; for viability, T/C: stronger effect = lower value
# Experimental: Multicellular complex tumor spheroid response to Polymerase (POL) inhibitors (novobiocin, ART-558, RP6685) in combination with a variety of drugs and investigational agents in selected tumor cell lines
# The POL inhibitors (novobiocin, ART-558, and RP6685) were evaluated both individually and in combination with standard of care and investigational anticancer small molecules within a complex spheroid model of solid tumors. . Complex spheroids include a stromal component modeled by human endothelial cells (HUVEC) and fibroblasts modeled by human mesenchymal stem cells (MSCs). The concentration ranges selected for each drug and investigational agent were based upon clinically achievable concentrations if the clinical Cmax of the agent was known.
# Compounds. The drugs and investigational agents: novobiocin (NSC847541), ART-558 (NSC835418), RP-6685 (NSC848927), peposertib (NSC802822), ceralasertib (NSC780249), elimusertib (NSC800525), camonsertib (NSC841442), AZD-1390 (NSC803789), olaparib (NSC753686), talazoparib (NSC767125), rucaparib (NSC756644), sotorasib (NSC818433), MRTX-1133 (NSC836407), SN-38 (NSC673596), topotecan (NSC609699), epotoside (NSC141540), doxorubicin (NSC123127), gemcitabine (NSC613327), 5-fluorouracil (NSC19893), paclitaxel (NSC125973), vemurafenib (NSC761431), MSA-2 (NSC828583), SN-011 (NSC837082), adavosertib (NSC754352), prexasertib (NSC758257), carboplatin (NSC241240) and oxaliplatin (NSC266046), were obtained from the National Cancer Institute (NCI) Developmental Therapeutics Program Chemical Repository (21). The FDA-approved anticancer drug set is available from the Developmental Therapeutics Program at https://dtp.cancer.gov/organization/dscb/obtaining/. […] The stock solutions were prepared in dimethyl sulfoxide (DMSO, Sigma-Aldrich, St. Louis, MO, cat. D2650), except for the platinum compounds which were prepared in saline (Quality Biological, Gaithersburg, MD, cat. 114-055-101), at 800-fold the tested concentration and stored at -70 degrees C prior to their use. All drugs and investigational agents were tested over a range starting from a high concentration at or near the clinical Cmax and decreasing in half-log increments. If the clinical Cmax for an agent had not been determined, the highest concentration tested was 10 microM, except for SN-38, which was tested at a high concentration of 1 microM.
# Cell Culture. All cells were maintained in an incubator at 37 degrees C and 5% CO2 with 95% humidity. The PDC lines were cultured according to standard operating procedures established by the NCI PDMR (https://pdmr.cancer.gov). Table 3 of the manuscript, lists the cell lines along with the number of the three cell types plated to form the mct-spheroids and media for tumor cell growth. After thawing, all PDC lines, except 997537-175-T-J1-PDC and 415267-285-R-J2-PDC, were cultured in Matrigel-coated flasks prepared with a working solution of 1X Ham's F-12 nutrient mix, without supplementation (Thermo Fisher Scientific, cat. 11765054), 100 U/mL penicillin-streptomycin (Thermo Fisher Scientific, cat. 15140122), and 2.5% Matrigel (Corning Inc., Corning, NY, cat. 354248) for the first three passages. The two PDC lines 997537-175-T-J1-PDC and 415267-285-R-J2-PDC were cultured on uncoated flasks. The 857933-349-R-J2-PDC line was cultured in 6C/Colon 1B media containing advanced DMEM/F-12 (Thermo Fisher Scientific, cat. 12634028), 10 mM HEPES (Thermo Fisher Scientific, cat. 15630080), 1X GlutaMAX supplement (Thermo Fisher Scientific, cat. 35050061), 0.1 mg/mL primocin (InvivoGen, San Diego, CA, cat. ant-pm-2), 10% defined fetal bovine serum, heat inactivated (HyClone Laboratories Inc., Logan, UT, cat. SH30070.03HI), 50% L-WRN conditioned media (ATCC, cat. CRL-3276), 1.25 mM N-Acetyl-L-cysteine (Sigma-Aldrich, cat. A9165), 10 mM nicotinamide (Sigma-Aldrich, cat. N0636), 1X B-27 supplement (Thermo Fisher Scientific, cat. 17504044), 1X N-2 supplement (Thermo Fisher Scientific, cat. […]
# [1] = second compound 0.0316 µM, first compound 0.0316 µM
# [2] = second compound 0.0316 µM, first compound 0.1 µM
# [3] = second compound 0.0316 µM, first compound 0.316 µM
# [4] = second compound 0.0316 µM, first compound 1 µM
# [5] = second compound 0.0316 µM, first compound 3.16 µM
# [6] = second compound 0.0316 µM, first compound 10 µM
# [7] = second compound 0.1 µM, first compound 0.0316 µM
# [8] = second compound 0.1 µM, first compound 0.1 µM
# [9] = second compound 0.1 µM, first compound 0.316 µM
# [10] = second compound 0.1 µM, first compound 1 µM
# [11] = second compound 0.1 µM, first compound 3.16 µM
# [12] = second compound 0.1 µM, first compound 10 µM
# [13] = second compound 0.316 µM, first compound 0.0316 µM
# [14] = second compound 0.316 µM, first compound 0.1 µM
# [15] = second compound 0.316 µM, first compound 0.316 µM
# [16] = second compound 0.316 µM, first compound 1 µM
# [17] = second compound 0.316 µM, first compound 3.16 µM
# [18] = second compound 0.316 µM, first compound 10 µM
# [19] = second compound 1 µM, first compound 0.0316 µM
# [20] = second compound 1 µM, first compound 0.1 µM
# [21] = second compound 1 µM, first compound 0.316 µM
# [22] = second compound 1 µM, first compound 1 µM
# [23] = second compound 1 µM, first compound 3.16 µM
# [24] = second compound 1 µM, first compound 10 µM
# [25] = second compound 3.16 µM, first compound 0.0316 µM
# [26] = second compound 3.16 µM, first compound 0.1 µM
# [27] = second compound 3.16 µM, first compound 0.316 µM
# [28] = second compound 3.16 µM, first compound 1 µM
# [29] = second compound 3.16 µM, first compound 3.16 µM
# [30] = second compound 3.16 µM, first compound 10 µM
# [31] = second compound 10 µM, first compound 0.0316 µM
# [32] = second compound 10 µM, first compound 0.1 µM
# [33] = second compound 10 µM, first compound 0.316 µM
# [34] = second compound 10 µM, first compound 1 µM
# [35] = second compound 10 µM, first compound 3.16 µM
# [36] = second compound 10 µM, first compound 10 µM
# 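Note: spheroids exposed to compounds for seven days.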
# 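Throughout, for viability, T/C: 100% = DMSO vehicle control viability.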
smiles,measurement,setting,value
C#Cc1c(F)ccc2cc(O)cc(-c3ncc4c(N5CC6CCC(C5)N6)nc(OCC56CCCN5CC(F)C6)nc4c3F)c12 (centres undefined) + COC1C(OC(N)=O)C(O)C(Oc2ccc3c(O)c(NC(=O)c4ccc(O)c(CC=C(C)C)c4)c(=O)oc3c2C)OC1(C)C,IC50,second compound 0.0316 µM,5.38 µM
same,IC50,second compound 0.1 µM,9.08 µM
same,IC50,second compound 0.316 µM,5.82 µM
same,IC50,second compound 1 µM,4.77 µM
same,IC50,second compound 3.16 µM,5.53 µM
same,IC50,second compound 10 µM,4.96 µM
same,"viability, T/C",[1],99.2%
same,"viability, T/C",[2],111%
same,"viability, T/C",[3],66.3%
same,"viability, T/C",[4],88.7%
same,"viability, T/C",[5],63.7%
same,"viability, T/C",[6],34.5%
same,"viability, T/C",[7],108%
same,"viability, T/C",[8],109%
same,"viability, T/C",[9],77.4%
same,"viability, T/C",[10],89.5%
same,"viability, T/C",[11],81.5%
same,"viability, T/C",[12],44.3%
same,"viability, T/C",[13],119%
same,"viability, T/C",[14],113%
same,"viability, T/C",[15],82.5%
same,"viability, T/C",[16],97.3%
same,"viability, T/C",[17],76.1%
same,"viability, T/C",[18],29.4%
same,"viability, T/C",[19],89.1%
same,"viability, T/C",[20],91.8%
same,"viability, T/C",[21],95.4%
same,"viability, T/C",[22],82%
same,"viability, T/C",[23],62.8%
same,"viability, T/C",[24],27.8%
same,"viability, T/C",[25],96.9%
same,"viability, T/C",[26],84.9%
same,"viability, T/C",[27],95%
same,"viability, T/C",[28],79.2%
same,"viability, T/C",[29],78.2%
same,"viability, T/C",[30],23.2%
same,"viability, T/C",[31],103%
same,"viability, T/C",[32],87.2%
same,"viability, T/C",[33],76.1%
same,"viability, T/C",[34],76.8%
same,"viability, T/C",[35],71.5%
same,"viability, T/C",[36],27.1%
COc1cccc2c1C(=O)c1c(O)c3c(c(O)c1C2=O)CC(O)(C(=O)CO)CC3OC1CC(N)C(O)C(C)O1 (centres undefined) + Cc1cccc(N(C)C(=O)C2C(O)CCN2c2nc(C)cc(C(F)(F)F)c2C#N)c1,IC50,second compound 0.0316 µM,0.244 µM
same,IC50,second compound 0.1 µM,0.148 µM
same,IC50,second compound 0.316 µM,0.15 µM
same,IC50,second compound 1 µM,0.196 µM
same,IC50,second compound 3.16 µM,0.183 µM
same,IC50,second compound 10 µM,0.135 µM
same,"viability, T/C",[1],70.9%
same,"viability, T/C",[2],69.3%
same,"viability, T/C",[3],44.2%
same,"viability, T/C",[4],2.17%
same,"viability, T/C",[5],0.48%
same,"viability, T/C",[6],1.56%
same,"viability, T/C",[7],77%
same,"viability, T/C",[8],56.6%
same,"viability, T/C",[9],34.7%
same,"viability, T/C",[10],2.14%
same,"viability, T/C",[11],1.04%
same,"viability, T/C",[12],1.26%
same,"viability, T/C",[13],57.3%
same,"viability, T/C",[14],59.7%
same,"viability, T/C",[15],35.2%
same,"viability, T/C",[16],4.5%
same,"viability, T/C",[17],0.81%
same,"viability, T/C",[18],0.94%
same,"viability, T/C",[19],58.9%
same,"viability, T/C",[20],78%
same,"viability, T/C",[21],37%
same,"viability, T/C",[22],2.29%
same,"viability, T/C",[23],1.29%
same,"viability, T/C",[24],1.22%
same,"viability, T/C",[25],61.8%
same,"viability, T/C",[26],69%
same,"viability, T/C",[27],36.2%
same,"viability, T/C",[28],1.55%
same,"viability, T/C",[29],1.05%
same,"viability, T/C",[30],0.85%
same,"viability, T/C",[31],55.7%
same,"viability, T/C",[32],62.4%
same,"viability, T/C",[33],24.7%
same,"viability, T/C",[34],0.91%
same,"viability, T/C",[35],0.87%
same,"viability, T/C",[36],1.31%
